In paper PMC6010123, “Synthesis of chiral pyrazolo[4,3-e][1,2,4]triazine sulfonamides with tyrosinase and urease inhibitory activity” (Journal of Enzyme Inhibition and Medicinal Chemistry, 2016):
Where two headings read alike, the source gives them in different places.

What was measured:
[1] = target: T1, Jack bean urease (EC 3.5.1.5) (Canavalia ensiformis, UniProt P07374); assay: biochemical
T1 construct: purchased Sigma (St. Louis, MO, USA)

[2] = target: T2, Jack bean urease (Canavalia ensiformis, UniProt P07374); assay: Kinetic study of urease inhibition (Lineweaver-Burk, secondary replot, Dixon plot); assay type: biochemical
T2 construct: purchased Sigma (St. Louis, MO, USA)
T2 sequence (P07374 whole entry, looked up): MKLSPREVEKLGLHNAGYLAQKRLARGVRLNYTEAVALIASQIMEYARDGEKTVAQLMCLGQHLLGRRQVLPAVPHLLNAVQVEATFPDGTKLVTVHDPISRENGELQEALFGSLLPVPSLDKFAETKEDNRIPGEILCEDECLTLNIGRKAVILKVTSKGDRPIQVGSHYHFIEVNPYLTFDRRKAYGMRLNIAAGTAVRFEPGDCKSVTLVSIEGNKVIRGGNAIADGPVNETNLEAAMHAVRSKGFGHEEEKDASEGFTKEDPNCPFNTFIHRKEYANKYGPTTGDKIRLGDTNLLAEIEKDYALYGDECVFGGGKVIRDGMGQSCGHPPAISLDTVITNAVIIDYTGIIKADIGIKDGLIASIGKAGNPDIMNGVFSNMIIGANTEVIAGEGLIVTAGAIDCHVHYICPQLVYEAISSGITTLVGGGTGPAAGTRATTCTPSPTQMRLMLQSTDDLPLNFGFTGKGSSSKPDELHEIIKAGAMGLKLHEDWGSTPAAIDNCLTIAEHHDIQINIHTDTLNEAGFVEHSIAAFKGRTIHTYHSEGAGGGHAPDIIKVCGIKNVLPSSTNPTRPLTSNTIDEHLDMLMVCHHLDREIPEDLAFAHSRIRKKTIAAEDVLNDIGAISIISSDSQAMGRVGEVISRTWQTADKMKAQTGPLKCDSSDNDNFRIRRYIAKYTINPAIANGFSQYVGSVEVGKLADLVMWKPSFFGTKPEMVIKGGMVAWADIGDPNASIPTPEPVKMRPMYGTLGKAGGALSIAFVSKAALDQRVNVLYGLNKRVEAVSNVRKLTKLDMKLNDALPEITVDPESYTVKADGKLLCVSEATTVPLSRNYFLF
Method: Urease inhibition was measured by varying the concentration of urea in the presence of different concentrations (0, 0.125, 0.25 and 0.5 μM) of compound 8a. Inhibitory constant (Ki) was determined as the intersection on the X-axis of the secondary replot of 1/V (y-intercept of Lineweaver–Burk plot) versus inhibitor concentrations and by Dixon plot of inverse of velocities (1/V) versus inhibitor concentrations. Briefly the urea concentration was changed from 3.12 to 100 mM for urease kinetics studies and remaining procedure was same as describes in urease inhibition assay protocol. Urease activity was determined by measuring ammonia production using the indophenol method as reported previously. The results (change in absorbance per min) were processed by using SoftMaxPro software(Molecular Devices Corporation Sunnyvale, CA) and a Dixon plot was constructed by plotting (1/V) versus inhibitor concentration [I].

[3] = target: mushroom tyrosinase (Agaricus bisporus, UniProt C7FF04); assay: Kinetic study of mushroom tyrosinase inhibition (Lineweaver-Burk, secondary replot, Dixon plot); assay type: biochemical; conditions: substrate L-DOPA
Chain of mushroom tyrosinase (C7FF04 2-392): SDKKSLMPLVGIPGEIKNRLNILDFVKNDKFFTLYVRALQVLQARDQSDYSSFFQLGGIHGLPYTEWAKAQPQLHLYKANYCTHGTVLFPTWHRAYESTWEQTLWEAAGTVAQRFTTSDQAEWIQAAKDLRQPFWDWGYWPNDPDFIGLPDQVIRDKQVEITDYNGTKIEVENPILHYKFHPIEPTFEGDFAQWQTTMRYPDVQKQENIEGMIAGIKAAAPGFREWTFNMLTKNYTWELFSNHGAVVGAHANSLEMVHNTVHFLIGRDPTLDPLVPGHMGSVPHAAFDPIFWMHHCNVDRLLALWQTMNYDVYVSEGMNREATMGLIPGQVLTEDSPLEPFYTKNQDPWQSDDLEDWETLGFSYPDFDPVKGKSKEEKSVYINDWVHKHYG
Method: Lineweaver–Burk plots of 1/absorbance versus 1/L-DOPA and 1/absorbance versus 1/Urea were used to determine the type of enzyme inhibition. A series of experiments were performed to determine the inhibition kinetics by following method[18] ^, [28] ^, [29]. Different inhibitor concentrations of compound 8b with 0, 15, 30, 61, 123 and 247 μM, 8j with 0, 14, 28 and 55.8 μM, respectively were used in case of mushroom tyrosinase inhibition. Substrate L-DOPA concentration was between 0.062 and 2 mM in all tyrosinase kinetic study. Pre-incubation and measurement time was the same as discussed in mushroom tyrosinase inhibition assay protocol. Maximal initial velocity was determined from initial linear portion of absorbance up to five minutes after addition of enzyme at a 30 s interval. The inhibition type on the enzyme was assayed by Lineweaver–Burk plots of inverse of velocities (1/V) versus inverse of substrate concentration 1/[S] mM ^− ^1, and the inhibition constant Ki was determined by two methods, by secondary replot of 1/V (y-intercept of Lineweaver–Burk plot) versus inhibitor concentrations and by Dixon plot of inverse of velocities (1/V) versus inhibitor concentrations.

T1 sequence (P07374 whole entry, looked up): as the sequence (P07374 whole entry, looked up) above

SMILES | IC50 [1] [µM] | also measured
CCOc1ccc(S(=O)(=O)NC[C@@H](O)CO)cc1-c1nnc2c(n1)c(C)nn2C [8h, (R)-N-(2,3-dihydroxypropyl)-3-(1,3-dimethyl-1H-pyrazolo[4,3-e][1,2,4]triazin-5-yl)-4-ethoxybenzenesulfonamide] | 0.08 ± 0.014 | 
CCOc1ccc(S(=O)(=O)NC[C@H](O)CO)cc1-c1nnc2c(n1)c(C)nn2C [8g, (S)-N-(2,3-dihydroxypropyl)-3-(1,3-dimethyl-1H-pyrazolo[4,3-e][1,2,4]triazin-5-yl)-4-ethoxybenzenesulfonamide] | 0.063 ± 0.016 | 
CCOc1ccc(S(=O)(=O)N[C@@H](C)CO)cc1-c1nnc2c(n1)c(C)nn2C [8a, (S)-3-(1,3-dimethyl-1H-pyrazolo[4,3-e][1,2,4]triazin-5-yl)-4-ethoxy-N-(1-hydroxy-propan-2-yl)benzenesulfonamide] | 0.037 ± 0.003 | Ki [2]: 0.01 µM; Urease type of inhibition ([2]; Lineweaver-Burk plot, substrate urea): Mixed type
CCOc1ccc(S(=O)(=O)N[C@H](C)CO)cc1-c1nnc2c(n1)c(C)nn2C [8b, (R)-3-(1,3-dimethyl-1H-pyrazolo[4,3-e][1,2,4]triazin-5-yl)-4-ethoxy-N-(1-hydroxy-propan-2-yl)benzenesulfonamide] | 0.084 ± 0.02 | Mushroom tyrosinase type of inhibition [3]: Noncompetitive
CCOc1ccc(S(=O)(=O)N[C@H](CO)C(C)C)cc1-c1nnc2c(n1)c(C)nn2C [8c, (S)-3-(1,3-dimethyl-1H-pyrazolo[4,3-e][1,2,4]triazin-5-yl)-4-ethoxy-N-(1-hydroxy-3-methylbutan-2-yl)benzenesulfonamide] | 0.078 ± 0.02 | 
CCOc1ccc(S(=O)(=O)NC[C@H](C)O)cc1-c1nnc2c(n1)c(C)nn2C [8e, (S)-3-(1,3-dimethyl-1H-pyrazolo[4,3-e][1,2,4]triazin-5-yl)-4-ethoxy-N-(2-hydroxy-propyl)-benzenesulfonamide] | 0.076 ± 0.007 | 
CCOc1ccc(S(=O)(=O)N[C@@H](CO)CC(C)C)cc1-c1nnc2c(n1)c(C)nn2C [8j, (R)-3-(1,3-dimethyl-1H-pyrazolo[4,3-e][1,2,4]triazin-5-yl)-4-ethoxy-N-(1-hydroxy-4-methylpentan-2-yl)benzenesulfonamide] | 0.08 ± 0.015 | Mushroom tyrosinase type of inhibition [3]: Mixed type
NC(N)=S [Thio-Urea, thiourea, reference compound] |  | IC50 ([1]; Jack bean urease, 100 mM urea, pH 8.2, 37 °C, read-out: Urease IC50): 20.7 ± 0.45 µM
CCOc1ccc(S(=O)(=O)NC[C@@H](C)O)cc1-c1nnc2c(n1)c(C)nn2C [8f, (R)-3-(1,3-dimethyl-1H-pyrazolo[4,3-e][1,2,4]triazin-5-yl)-4-ethoxy-N-(2-hydroxy-propyl)-benzenesulfonamide] |  | IC50 ([1]; read-out: Urease IC50, Jack bean urease, 100 mM urea, pH 8.2, 37 °C): 0.044 ± 0.13 µM
CCOc1ccc(S(=O)(=O)N[C@@H](CO)C(C)C)cc1-c1nnc2c(n1)c(C)nn2C [8d, (R)-3-(1,3-dimethyl-1H-pyrazolo[4,3-e][1,2,4]triazin-5-yl)-4-ethoxy-N-(1-hydroxy-3-methylbutan-2-yl)benzenesulfonamide] | 0.064 ± 0.02 | 
CCOc1ccc(S(=O)(=O)N[C@H](CO)CC(C)C)cc1-c1nnc2c(n1)c(C)nn2C [8i, (S)-3-(1,3-dimethyl-1H-pyrazolo[4,3-e][1,2,4]triazin-5-yl)-4-ethoxy-N-(1-hydroxy-4-methylpentan-2-yl)benzenesulfonamide] | 0.042 ± 0.012 | 
